# Assay results published in PubChem BioAssay (NCI).
#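 Briefly, cells in 96-well plates were exposed to five compound concentrations for 48 h, and endpoints were estimated by linear interpolation. TGI denotes the concentration required for complete inhibition of growth.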
# What was measured:
# Assay in all cases: NCI tumour cell line growth inhibition, 48 h
# [1] = system: MDA-MB-231 breast
# [2] = system: SK-MEL-2 melanoma
# [3] = system: HOP-92 NSCLC
# [4] = system: EKVX NSCLC
# [5] = system: OVCAR-5 ovarian
# [6] = system: IGROV1 ovarian
# [7] = system: OVCAR-8 ovarian
# [8] = system: PC-3 prostate
# [9] = system: HL-60(TB) leukemia
# [10] = system: SR leukemia
# [11] = system: UACC-257 melanoma
# [12] = system: RPMI-8226 leukemia
# [13] = system: A549 NSCLC
# [14] = system: SF-295 CNS
# [15] = system: SK-OV-3 ovarian
# [16] = system: M14 melanoma
# [17] = system: K-562 leukemia
# [18] = system: SK-MEL-28 melanoma
# [19] = system: HCT-15 colon
# [20] = system: HCT-116 colon
# [21] = system: NCI-H226 lung
# [22] = system: COLO 205 colon
# [23] = system: T-47D breast
# [24] = system: MDA-N
# [25] = system: SN12C renal
# [26] = system: TK-10 renal
# [27] = system: LOX IMVI melanoma
# [28] = system: MALME-3M melanoma
# [29] = system: MOLT-4 leukemia
# [30] = system: MDA-MB-435
# [31] = system: BT-549 breast
# [32] = system: NCI-H460 lung
# [33] = system: SNB-19 CNS
# [34] = system: MCF7 breast
# [35] = system: SF-539 CNS
# [36] = system: U251 CNS
# [37] = system: NCI-H23 lung
# [38] = system: CCRF-CEM leukemia
# [39] = system: SK-MEL-5 melanoma
# [40] = system: SF-268 CNS
# [41] = system: HCC-2998 colon
# [42] = system: OVCAR-3 ovarian
# [43] = system: KM12 colon
# [44] = system: HT29 colon
# [45] = system: NCI-H522 lung
# [46] = system: CAKI-1 renal
# [47] = system: DU-145 prostate
# [48] = system: SNB-75 CNS
# [49] = system: A498 renal
# [50] = system: SW-620 colon
# [51] = system: UACC-62 melanoma
# [52] = system: 786-0 renal
# [53] = system: NCI/ADR-RES ovarian
# [54] = system: OVCAR-4 ovarian
# [55] = system: RXF 393 renal
# [56] = system: ACHN renal
# [57] = system: HS 578T breast
# [58] = system: UO-31 renal
# [59] = system: HOP-62 NSCLC
smiles,measurement,setting,value
C#CCN(Cc1ccc2nc(OC)c(OC)nc2c1)c1cc(OC)c(OC)c(OC)c1,TGI,[1],43.5 µM
same,TGI,[2],> 87.8 µM
same,TGI,[3],62.6 µM
same,TGI,[4],> 86 µM
same,TGI,[5],> 85.8 µM
same,TGI,[6],> 69.6 µM
same,TGI,[7],64.3 µM
same,TGI,[8],> 91.5 µM
same,TGI,[9],43.5 µM
same,TGI,[10],> 61.7 µM
same,TGI,[11],> 100 µM
same,TGI,[12],28.3 µM
same,TGI,[13],> 89.6 µM
same,TGI,[14],> 100 µM
same,TGI,[15],> 100 µM
same,TGI,[16],71.2 µM
same,TGI,[17],> 100 µM
same,TGI,[18],> 100 µM
same,TGI,[19],> 87.5 µM
same,TGI,[20],> 68.8 µM
same,TGI,[21],60.6 µM
same,TGI,[22],41.5 µM
same,TGI,[23],> 100 µM
same,TGI,[24],45.5 µM
same,TGI,[25],57.2 µM
same,TGI,[26],> 100 µM
same,TGI,[27],> 48.9 µM
same,TGI,[28],83.8 µM
same,TGI,[29],72.6 µM
same,TGI,[30],74.7 µM
same,TGI,[31],> 72.4 µM
same,TGI,[32],> 87.2 µM
same,TGI,[33],> 80.9 µM
same,TGI,[34],> 66 µM
same,TGI,[35],43.6 µM
same,TGI,[36],> 80.2 µM
same,TGI,[37],46.2 µM
same,TGI,[38],> 100 µM
same,TGI,[39],23.1 µM
same,TGI,[40],> 94.1 µM
same,TGI,[41],> 100 µM
same,TGI,[42],> 100 µM
same,TGI,[43],54.9 µM
same,TGI,[44],72 µM
same,TGI,[45],36.1 µM
same,TGI,[46],> 82.8 µM
same,TGI,[47],> 74.5 µM
same,TGI,[48],> 100 µM
same,TGI,[49],> 84.5 µM
same,TGI,[50],> 100 µM
same,TGI,[51],> 97.2 µM
same,TGI,[52],78.7 µM
same,TGI,[53],53.7 µM
same,TGI,[54],> 46.9 µM
same,TGI,[55],> 75.1 µM
same,TGI,[56],> 100 µM
same,TGI,[57],79.1 µM
same,TGI,[58],> 89.1 µM
same,TGI,[59],> 67.9 µM
COC(=O)[C@H](Cc1ccccc1)NC(=O)CCCCCCC(=O)NO,TGI,[1],65.3 µM
same,TGI,[2],23.8 µM
same,TGI,[3],71.9 µM
same,TGI,[4],> 100 µM
same,TGI,[5],43.9 µM
same,TGI,[6],57.5 µM
same,TGI,[7],> 100 µM
same,TGI,[8],38.2 µM
same,TGI,[9],> 100 µM
same,TGI,[10],> 100 µM
same,TGI,[11],45.4 µM
same,TGI,[12],> 100 µM
same,TGI,[13],> 100 µM
same,TGI,[14],44.6 µM
same,TGI,[15],52.3 µM
same,TGI,[16],> 100 µM
same,TGI,[17],> 100 µM
same,TGI,[18],> 100 µM
same,TGI,[19],> 100 µM
same,TGI,[20],27 µM
same,TGI,[21],> 100 µM
same,TGI,[22],> 100 µM
same,TGI,[23],8.88 µM
same,TGI,[24],56.6 µM
same,TGI,[25],> 100 µM
same,TGI,[26],72.5 µM
same,TGI,[27],32.4 µM
same,TGI,[28],38.6 µM
same,TGI,[29],> 100 µM
same,TGI,[30],63.8 µM
same,TGI,[31],> 100 µM
same,TGI,[32],86 µM
same,TGI,[33],> 100 µM
same,TGI,[34],> 100 µM
same,TGI,[35],> 100 µM
same,TGI,[36],87.5 µM
same,TGI,[37],> 100 µM
same,TGI,[38],> 100 µM
same,TGI,[39],28.6 µM
same,TGI,[40],72.1 µM
same,TGI,[41],42.5 µM
same,TGI,[42],34.9 µM
same,TGI,[43],> 100 µM
same,TGI,[44],> 100 µM
same,TGI,[45],30.6 µM
same,TGI,[46],> 100 µM
same,TGI,[47],38.5 µM
same,TGI,[50],> 100 µM
same,TGI,[51],46.8 µM
same,TGI,[52],> 100 µM
same,TGI,[53],> 100 µM
same,TGI,[54],> 100 µM
same,TGI,[55],32.3 µM
same,TGI,[56],> 100 µM
same,TGI,[57],> 100 µM
same,TGI,[58],> 100 µM
